# Several values for one entry are separate records, joined by “and”; a condition that tells them apart may be missing. Equal entries are not always repeated. Entries after “also recorded” stand apart in the source; their conditions may differ. Where two headings read alike, the source gives them in different places.
# Assays:
# [1] = system: human neural stem cells (hNSCs); test: neuronal differentiation of cultured human neural stem cells (TUJ-1 staining), agents alone and in combination; details: for EC50: % of neuronal positive control, basal media subtracted; for effect on differentiation of hNSCs along a neuronal lineage, agent alone: dose-response, normalized to neuronal positive control;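 on all read-outs here: cells kept in mitogen-free test media, with growth-factor-free basal medium as the negative control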
# Protocol: The presence of synergy was determined by use of a combination index (CI). […] The CI is a quantitative measure of the nature of drug interactions, comparing the EC50's of two compounds, when each is assayed alone, to the EC50 of each compound when assayed in combination. The combination index (CI) is equal to the following formula:
# where C1 and C2 are the concentrations of a first and a second compound, respectively, resulting in 50% activity in neuronal differentiation when assayed in combination; and IC1 and IC2 are the concentrations of each compound resulting in 50% activity when assayed independently.
# [2] = molecular target: human mGlu2 receptors (Homo sapiens, UniProt Q14416); details: in vitro; e.g., below about 10 nM, or below about 5 nM; cited from earlier work
# [3] = molecular target: human mGlu3 receptors (Homo sapiens, UniProt Q14832); details: in vitro; e.g., below about 10 nM, or below about 5 nM; cited from earlier work
# [4] = system: human neural stem cells (hNSCs); test: astrocyte differentiation of cultured human neural stem cells (GFAP staining); format: cell-based; details: dose-response, normalized to astrocyte positive control
# Protocol: Mitogen-free test media with a positive control for neuronal differentiation, mitogen-free test media with 50 ng/ml BMP-2, 50 ng/ml LIF and 0.5% FBS served as a positive control for astrocyte differentiation, and basal media without growth factors served as a negative control.
# [5] = system: human neural stem cells (hNSCs); test: toxicity on human neural stem cells (cell count, nuclear dye Hoechst 33342); format: cell-based; details: concentrations up to 100 μM; toxic doses fall below 80% of basal cell count
# Protocol: Data is shown as a percent of the basal media cell count. Toxic doses typically fall below 80% of the basal cell count.
# Experiments were carried out as described in Example 1, except that the positive control contained basal media only, and cells were stained with nuclear dye (Hoechst 33342).
# [6] = system: human neural stem cells (hNSCs); test: growth of individual neurospheres comprising hNSCs (proliferation); format: cell-based; details: 1 μM, 10 μM and 30 μM; percent increase over basal neurosphere size as a function of time
# Protocol: Results are shown as a percent increase over the basal neurosphere size. Negative control (open circles) is basal media without compound, and positive control (open squares) is basal media with a known proliferative agent.
# FIG. 7 is a time-response curve showing the effect of 1 μM (solid diamonds), 10 μM (solid squares), and 30 μM (solid circles) concentrations of baclofen on the growth of individual neurospheres comprising human neural stem cells (hNSCs) as a function of time. Results are shown as a percent increase over the basal neurosphere size. Negative control (open circle) is basal media without compound, and positive control (open square) is basal media with a known proliferative agent.
# [7] = molecular target: mGluR2 (Homo sapiens, UniProt Q14416); details: cited from earlier work
# [8] = molecular target: mGluR3 (Homo sapiens, UniProt Q14832); details: cited from earlier work
# [9] = system: Male Fisher F344 rats; test: chronic dosing of rats: proliferation and differentiation of neural cells in the dentate gyrus (BrdU); format: in vivo, rat; details: for increase in differentiation of neural progenitor cells into mature neurons, subgranular zone of dentate gyrus: chronic treatment
# Protocol: Male Fisher F344 rats were injected with varying doses of baclofen as a test compound with vehicle, or vehicle only (negative control), once daily for twenty eight days. Rats were injected once daily with 100 mg/kg BrdU on days 9-14 of test compound administrations. Rats were then anesthetized and killed by transcardial perfusion of 4% paraformaldehyde at day 28. Brains were rapidly removed and stored in 4% paraformaldehyde for 24 hours and then equilibrated in phosphate buffered 30% sucrose. Free floating 40 micron sections were collected on a freezing microtome and stored in cryoprotectant. Antibodies against BrdU and cell types of interest (e.g., neurons, astrocytes, oligodendrocytes, endothelial cells) were used for detection of cell differentiation.
# Briefly, tissues were washed (0.01 M PBS), endogenous peroxidase blocked with 1% hydrogen peroxide, and incubated in PBS (0.01 M, pH 7.4, 10% normal goat serum, 0.5% Triton X-100) for 2 hours at room temperature. Tissues were then incubated with primary antibody at 4° C. overnight. The tissues were rinsed in PBS followed by incubation with biotinylated secondary antibody (1 hour at room temperature). Tissues were further washed with PBS and incubated in avidin-biotin complex kit solution at room temperature for 1 hour. Various fluorophores linked to streptavidin were used for visualization. Tissues were washed with PBS, briefly rinsed in dH2O, serially dehydrated and coverslipped. Cell counting and unbiased stereology was limited to the hippocampal granule cell layer proper and one 50 um border along the hilar margin that includes the neurogenic subgranular zone. The proportion of BrdU cells displaying a lineage-specific phenotype was determined by scoring the co-localization of cell phenotype markers with BrdU using confocal microscopy. Split panel and z-axis analysis were used for all counting. All counts were performed using multi-channel configuration with a 40× objective and electronic zoom of 2. When possible, 100 or more BrdU-positive cells were scored for each marker per animal. Each cell was manually examined in first full “z”-dimension and only those cells for which the nucleus is unambiguously associated with the lineage-specific marker were scored as positive.
# The total number of BrdU-labeled cells per hippocampal granule cell layer and subgranule zone were determined using diaminobenzidine stained tissues. Over-estimation was corrected using the Abercrombie method for nuclei with empirically determined average diameter of 13 um within a 40 um section.
# [10] = system: Male Fischer F344 rats; test: novelty suppressed feeding antidepressant/anxiolytic assay; format: in vivo, rat; details: oral gavage once daily for 21 days, compounds given two hours prior to testing, 5.0 mg/kg each
# Protocol: Male Fischer F344 rats were administered test compound(s)+vehicle or vehicle only (negative control) by oral gavage once daily for 21 days and evaluated for antidepressant/anxiolytic activity in the novelty suppressed feeding assay as follows. Twenty-four hours prior to behavioral testing, all food was removed from the home cage. At the time of testing a single pellet was placed in the center of a novel arena. Animals were placed in the corner of the arena and latency to eat the pellet was recorded. Compounds were administered two hours prior to testing. A decreased latency to eat the food pellet is indicative of both neurogenesis and antidepressant activity.
# [11] = in vivo; cited from earlier work
# [12] = cited from earlier work
# [13] = Homo sapiens, Neural stem cell, read-out: EC50 for neuronal differentiation, agent alone, compound run individually
# [14] = read-out: EC50 for neuronal differentiation, agent alone, compound run individually
# Sequence of mGluR2 (Q14416 19-872): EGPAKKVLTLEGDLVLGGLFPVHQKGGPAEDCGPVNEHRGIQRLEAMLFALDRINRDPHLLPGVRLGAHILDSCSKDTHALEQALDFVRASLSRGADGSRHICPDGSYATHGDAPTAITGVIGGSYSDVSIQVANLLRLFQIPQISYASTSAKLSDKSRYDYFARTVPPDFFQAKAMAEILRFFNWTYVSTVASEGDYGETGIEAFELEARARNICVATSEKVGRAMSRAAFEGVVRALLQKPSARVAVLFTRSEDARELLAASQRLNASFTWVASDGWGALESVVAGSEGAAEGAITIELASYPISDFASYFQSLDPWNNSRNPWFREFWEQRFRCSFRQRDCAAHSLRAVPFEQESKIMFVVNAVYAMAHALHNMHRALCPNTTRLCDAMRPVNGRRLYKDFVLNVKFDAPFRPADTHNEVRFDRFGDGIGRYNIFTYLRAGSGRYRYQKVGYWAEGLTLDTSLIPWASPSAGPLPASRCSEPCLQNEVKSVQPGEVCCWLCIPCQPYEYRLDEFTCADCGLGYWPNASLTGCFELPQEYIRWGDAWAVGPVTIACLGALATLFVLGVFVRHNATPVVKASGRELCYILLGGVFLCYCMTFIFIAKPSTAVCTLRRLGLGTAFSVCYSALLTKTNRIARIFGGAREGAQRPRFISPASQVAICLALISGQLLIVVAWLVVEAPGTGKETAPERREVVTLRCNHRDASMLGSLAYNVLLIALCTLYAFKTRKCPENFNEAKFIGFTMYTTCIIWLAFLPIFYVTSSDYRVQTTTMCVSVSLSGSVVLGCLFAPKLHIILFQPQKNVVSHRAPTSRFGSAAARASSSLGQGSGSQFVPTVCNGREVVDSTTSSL
# Sequence of human mGlu2 receptors (Q14416 19-872): as above
# Sequence of mGluR3 (Q14832 23-879): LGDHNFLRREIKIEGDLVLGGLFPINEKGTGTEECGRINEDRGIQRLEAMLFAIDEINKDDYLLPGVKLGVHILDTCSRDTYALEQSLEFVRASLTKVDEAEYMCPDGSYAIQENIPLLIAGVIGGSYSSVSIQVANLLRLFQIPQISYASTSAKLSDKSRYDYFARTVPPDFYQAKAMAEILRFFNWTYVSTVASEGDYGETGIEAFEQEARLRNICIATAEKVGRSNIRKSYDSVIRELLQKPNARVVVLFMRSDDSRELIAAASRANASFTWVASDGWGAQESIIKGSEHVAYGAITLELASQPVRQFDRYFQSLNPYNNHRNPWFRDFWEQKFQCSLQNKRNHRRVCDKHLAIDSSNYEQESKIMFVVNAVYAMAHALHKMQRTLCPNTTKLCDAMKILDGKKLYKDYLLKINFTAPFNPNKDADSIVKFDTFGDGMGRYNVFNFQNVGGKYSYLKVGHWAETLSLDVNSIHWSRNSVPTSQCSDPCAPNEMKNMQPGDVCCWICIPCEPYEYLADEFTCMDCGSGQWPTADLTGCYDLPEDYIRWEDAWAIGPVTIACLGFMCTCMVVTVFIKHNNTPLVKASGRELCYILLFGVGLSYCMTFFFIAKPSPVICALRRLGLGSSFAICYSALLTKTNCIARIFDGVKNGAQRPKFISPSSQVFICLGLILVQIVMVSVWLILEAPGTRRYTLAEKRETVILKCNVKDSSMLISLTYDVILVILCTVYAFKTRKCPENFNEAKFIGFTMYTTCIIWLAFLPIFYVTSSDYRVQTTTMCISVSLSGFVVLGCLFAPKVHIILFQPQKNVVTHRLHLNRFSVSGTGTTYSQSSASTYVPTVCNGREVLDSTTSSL
# Sequence of human mGlu3 receptors (Q14832 23-879): as above
compound,measurement,setting,value
C[C@H](CS)C(=O)N1CCC[C@H]1C(=O)O [captopril],EC50,[1]; [13],3.8 µM
"CCC[C@H](N[C@@H](C)C(=O)N1[C@H](C(=O)O)C[C@@H]2CCCC[C@@H]21)C(=O)O [perindoprilat, Perindoprilat]",EC50,[1]; [13],3.5 µM
"N[C@@]1(C(=O)O)CO[C@H]2[C@H](C(=O)O)[C@H]21 [LY379268, (−)-2-Oxa-4-aminobicyclohexane-4,6-dicarboxylic acid]",EC50,[2],low nanomolar range
same,EC50,[3],low nanomolar range
"NCC1(CC(=O)O)CCCCC1 [gabapentin, Gabapentin]",EC50,[1]; [14],0.68 µM and 4.32 µM and 2.66 µM
NCCCC(=O)O [GABA],effect on differentiation of hNSCs along an astrocyte lineage,[4],no detectable effect; also recorded: did not exhibit a significant effect on astrocyte differentiation
same,toxicity on hNSCs (cell count as percent of basal media cell count),[5],Neither GABA nor baclofen exhibited toxicity; also recorded: did not exhibit significant toxicity
same,effect on neurosphere growth / cell proliferation,[6],positive effect on cell proliferation
same,"effect on differentiation of hNSCs along a neuronal lineage, agent alone",[1],promoted neuronal differentiation; also recorded: significant enhancement
CCCCc1ncc(/C=C(\Cc2cccs2)C(=O)O)n1Cc1ccc(C(=O)O)cc1 [eprosartan],EC50,[1]; [13],0.03 µM
CCCCN(CC)c1nc(C)nc2c1c(C)c(C)n2-c1c(C)cc(C)cc1C [antalarmin],EC50,[1]; [13],2.33 µM
NCCCC[C@H](N[C@@H](CCc1ccccc1)C(=O)O)C(=O)N1CCC[C@H]1C(=O)O [lisinopril],EC50,[1]; [13],3.8 µM
CCOC(=O)[C@H](CCc1ccccc1)N[C@H]1CCc2ccccc2N(CC(=O)O)C1=O [benazepril],EC50,[1]; [13],5.5 µM
"NC1(C(=O)O)CCc2cc(P(=O)(O)O)ccc21 (racemic) [APICA, (RS)-1-amino-5-phosphonoindan-1-carboxylic acid]",IC50,[7],~30 µM
same,IC50,[8],~30 µM
"C[C@H](N[C@@H](CCc1ccccc1)C(=O)O)C(=O)N1Cc2ccccc2C[C@H]1C(=O)O [quinaprilat, Quinaprilat]",EC50,[1]; [13],2.4 µM
"NCC(CC(=O)O)c1ccc(Cl)cc1 (stereo not drawn) [baclofen, Baclofen]",effect on differentiation of hNSCs along an astrocyte lineage,[4],did not exhibit a significant effect on astrocyte differentiation
same,effect on differentiation of hNSCs along an astrocyte lineage,[4]; listed as Baclofen,no detectable effect
same,toxicity on hNSCs (cell count as percent of basal media cell count),[5],Neither GABA nor baclofen exhibited toxicity; also recorded: did not exhibit significant toxicity
same,effect on neurosphere growth / cell proliferation,[6],positive effect on cell proliferation
same,"increase in differentiation of neural progenitor cells into mature neurons, subgranular zone of dentate gyrus",[9]; 0.75 mg/kg/day,8%
same,"increase in differentiation of neural progenitor cells into mature neurons, subgranular zone of dentate gyrus",[9]; 1.50 mg/kg/day,5%
same,neural cell proliferation within the dentate gyrus (mean number of BrdU-positive cells),"[9]; injection once daily for twenty eight days, 0.75 and 1.50 mg/kg",dose-related increase in proliferation
same,neurogenic effects in vivo,[9]; once daily for twenty eight days,produces neurogenic effects with a rapid onset of action
same,EC50,[1]; [13],3.84 µM
same,"effect on differentiation of hNSCs along a neuronal lineage, agent alone",[1],significant enhancement
same,"effect on differentiation of hNSCs along a neuronal lineage, agent alone",[1]; listed as Baclofen,promoted neuronal differentiation
same,EC50,[1]; [14],3.2 µM
"NC(=O)c1ncn([C@@H]2O[C@H](CO)[C@@H](O)[C@H]2O)n1 [ribaviran, ribavirin]",EC50,[1]; [13],6.1 µM
"CC(C)C[C@H](CN)CC(=O)O [pregabalin, (S)-(+)-3-isobutylgaba]",antidepressant and anxiolytic effects in novelty suppressed feeding,[10],no effects
same,EC50,[1]; [14],0.57 µM and 3.39 µM and 4.13 µM
NC(=O)C[S+]([O-])C(c1ccccc1)c1ccccc1 (stereo not drawn) [modafinil],EC50,[1]; [13],3.44 µM
CCCCc1nc(Cl)c(CO)n1Cc1ccc(-c2ccccc2-c2nn[nH]n2)cc1 [losartan],EC50,[1]; [13],0.31 µM
CCCc1nc2c(C)cc(-c3nc4ccccc4n3C)cc2n1Cc1ccc(-c2ccccc2C(=O)O)cc1 [telmisartan],EC50,[1]; [13],0.02 µM
CC(C)c1c(C(=O)Nc2ccccc2)c(-c2ccccc2)c(-c2ccc(F)cc2)n1CC[C@@H](O)C[C@@H](O)CC(=O)O [atorvastatin],EC50,[1]; [13],0.003 µM
Clc1ccc2c(c1)N=C(N1CCNCC1)c1ccccc1N2 [N-desmethylclozapine],EC50,[1]; [14],> 100 µM
"COCCCOc1cc(C[C@@H](C[C@H](N)[C@@H](O)C[C@H](C(=O)NCC(C)(C)C(N)=O)C(C)C)C(C)C)ccc1OC [aliskiren, (2S,4S,5S,7S)-5-amino-N-(2-carbamoyl-2-methyl-propyl)-4-hydroxy-7-{[4-methoxy-3-(3-methoxypropoxy)phenyl]methyl}-8-methyl-2-propan-2-yl-nonanamide]",plasma half-life,[11],≈ 24 hours
same,water solubility,[12],good water solubility
same,EC50,[1]; [13],2.79 µM
CCOc1nc2cccc(C(=O)O)c2n1Cc1ccc(-c2ccccc2-c2nnn[nH]2)cc1 [candesartan],antidepressant and anxiolytic effects in novelty suppressed feeding,[10],no effects
same,EC50,[1]; [13],1.17 µM
same,EC50,[1]; [14],1.33 µM
COC(=O)[C@@H]1[C@H]2C[C@H]3c4[nH]c5ccccc5c4CCN3C[C@@H]2CC[C@@H]1O [yohimbine],EC50,[1]; [13],1.96 µM
O=C1CC[C@@]2(O)[C@H]3Cc4ccc(O)c5c4[C@@]2(CCN3CC2CC2)[C@H]1O5 [naltrexone],EC50,[1]; [13],7.3 µM
O=C(O)[C@@H]1C[C@@H](C2CCCCC2)CN1C(=O)CP(=O)(O)CCCCc1ccccc1 [fosinoprilat],EC50,[1]; [13],3.3 µM

# — patent publication US20110046090A1 (BrainCells Inc., priority 2005, published 2011)
